According to US9296741B2, “Bromodomain inhibitors” (priority 2012, dated 2016):

Experiments:
[1] = Mouse liver microsome stability assay; assay type: in vitro ADME; details: male, CD1, mouse, microsomes, pH 7.4
[2] = Human liver microsome stability assay; assay type: in vitro ADME; details: both sexes, human, microsomes, pH 7.4
[3] = tested on: LPS induced IL-6 production; assay: LPS (lipopolysaccharide) induced IL-6 production mouse assay; assay type: in vivo; details: Mus musculus, read-out: Inhibition of LPS induced IL-6 production in Mice, % inhibition at 3 mg/kg; 3 mg/kg oral, 1 h before LPS; serum IL-6 2 h after LPS
[4] = Rat liver microsome stability assay; assay type: in vitro ADME; details: rat liver microsomes (male Sprague-Dawley), 0.5 μM test compound, 0.25 mg/mL microsomal protein, pH 7.4, 37° C.; read-out: Stability in rat liver microsomes (t1/2 in minutes)
[5] = tested on: breast cancer cell line MX-1; assay: MX-1 cell line proliferation assay; assay type: cell-based, human; details: Homo sapiens, MX1, 72 h; MX-1 cells, 3-day proliferation, Cell Titer Glo; read-out: Cellular proliferation: EC50

| half-life at 0.5 μM [1] [h] | half-life at 0.5 μM [2] [h] | half-life at 0.5 μM [4] [h] | EC50 [5] [nM] | SMILES | inhibition in vivo at 3 mg/kg [3] [%] |
| --- | --- | --- | --- | --- | --- |
| 0.917 | 0.483 | 0.0833 | 12.6 | Cn1cc(-c2cc(NS(C)(=O)=O)cc(F)c2Oc2ccccc2)c2cc[nH]c2c1=O [Example 24, N-[3-fluoro-5-(6-methyl-7-oxo-6,7-dihydro-1H-pyrrolo[2,3-c]pyridin-4-yl)-4-phenoxyphenyl]methanesulfonamide] | 58 |
| > 2 | > 2 | > 2 | 14.4 | Cn1cc(-c2cc(S(N)(=O)=O)ccc2OCC2CC2)c2cc[nH]c2c1=O [Example 249, 4-(cyclopropylmethoxy)-3-(6-methyl-7-oxo-6,7-dihydro-1H-pyrrolo[2,3-c]pyridin-4-yl)benzenesulfonamide] | 59 |
| 0.483 | > 2 | 1.93 | 19.5 | Cn1cc(-c2cc(CS(C)(=O)=O)ccc2Oc2ccc(F)cc2F)c2cc[nH]c2c1=O [Example 287, 4-{2-(2,4-difluorophenoxy)-5-[(methylsulfonyl)methyl]phenyl}-6-methyl-1,6-dihydro-7H-pyrrolo[2,3-c]pyridin-7-one] | 73 |
| > 2 | > 2 | > 2 | 17.1 | Cn1cc(-c2cc(S(C)(=O)=O)ccc2NCC2CC2)c2cc[nH]c2c1=O [Example 329, 4-{2-[(cyclopropylmethyl)amino]-5-(methylsulfonyl)phenyl}-6-methyl-1,6-dihydro-7H-pyrrolo[2,3-c]pyridin-7-one] | 63 |
| 0.717 | > 2 | > 2 | 182 | Cn1cc(-c2cc(S(N)(=O)=O)cnc2OC2CCOC2)c2cc[nH]c2c1=O (stereo not drawn) [Example 86, 5-(6-methyl-7-oxo-6,7-dihydro-1H-pyrrolo[2,3-c]pyridin-4-yl)-6-(tetrahydrofuran-3-yloxy)pyridine-3-sulfonamide] | 55 |
| > 2 | > 2 | 0.6 | 42.6 | Cn1cc(-c2cc(CS(C)(=O)=O)ccc2NCC2CC2)c2cc[nH]c2c1=O [Example 328, 4-{2-[(cyclopropylmethyl)amino]-5-[(methylsulfonyl)methyl]phenyl}-6-methyl-1,6-dihydro-7H-pyrrolo[2,3-c]pyridin-7-one] | 40 |
| 0.35 | 1.12 | 1.98 | 119 | CCS(=O)(=O)Nc1ccc(Oc2ccc(F)cc2F)c(-c2nn(C)c(=O)c3[nH]ccc23)c1 [Example 160, N-[4-(2,4-difluorophenoxy)-3-(6-methyl-7-oxo-6,7-dihydro-1H-pyrrolo[2,3-d]pyridazin-4-yl)phenyl]ethanesulfonamide] | 51 |
| 1.13 | > 2 | 1.35 | 82.9 | CCS(=O)(=O)c1ccc(OCC2CC2)c(-c2nn(C)c(=O)c3[nH]ccc23)c1 [Example 204, 4-[2-(cyclopropylmethoxy)-5-(ethylsulfonyl)phenyl]-6-methyl-1,6-dihydro-7H-pyrrolo[2,3-d]pyridazin-7-one] | 35 |
| > 2 | 1.73 | > 2 | 36.7 | CNS(=O)(=O)c1cnc(NCC2CC2)c(-c2cn(C)c(=O)c3[nH]ccc23)c1 [Example 210, 6-[(cyclopropylmethyl)amino]-N-methyl-5-(6-methyl-7-oxo-6,7-dihydro-1H-pyrrolo[2,3-c]pyridin-4-yl)pyridine-3-sulfonamide] | 78 |
